# Values of other authors as cited in EP3599609A1, “SYSTEM AND METHOD FOR CLEANING NOISY GENETIC DATA AND USING DATA TO MAKE PREDICTIONS” (Natera, Inc., priority 2005, dated 2007).
# Settings: colon cancer patients treated with irinotecan
compound,measurement,value
CCc1c2c(nc3ccc(OC(=O)N4CCC(N5CCCCC5)CC4)cc13)-c1cc3c(c(=O)n1C2)COC(=O)[C@]3(O)CC [irinotecan],"severe diarrhea, patients affected",31%
same,"severe neutropenia, patients affected",28%
